Assays:
Type in all cases: binding
Details in all cases: Compound Concentration 10 µM
[1] = target: T1, panel of 442 kinases (Homo sapiens, UniProt P00533, G719C)
T1 construct: purchased KINOMEscan
Excerpt: (§1) We assessed the selectivity of members of this scaffold using the KINOMEscan methodology across a near comprehensive panel of 442 kinases [[18,27]].

[2] = target: T2, panel of 442 kinases (Homo sapiens, UniProt P22607, G697C)
T2 construct: purchased KINOMEscan
Excerpt: as §1

[3] = target: T3, panel of 442 kinases (Homo sapiens, UniProt Q9BUB5)
T3 construct: purchased KINOMEscan
Excerpt: as §1

[4] = target: T4, panel of 442 kinases (Homo sapiens, UniProt P00519, Y253F)
T4 construct: purchased KINOMEscan
Excerpt: as §1

T2 sequence (P22607 23-806 G697C): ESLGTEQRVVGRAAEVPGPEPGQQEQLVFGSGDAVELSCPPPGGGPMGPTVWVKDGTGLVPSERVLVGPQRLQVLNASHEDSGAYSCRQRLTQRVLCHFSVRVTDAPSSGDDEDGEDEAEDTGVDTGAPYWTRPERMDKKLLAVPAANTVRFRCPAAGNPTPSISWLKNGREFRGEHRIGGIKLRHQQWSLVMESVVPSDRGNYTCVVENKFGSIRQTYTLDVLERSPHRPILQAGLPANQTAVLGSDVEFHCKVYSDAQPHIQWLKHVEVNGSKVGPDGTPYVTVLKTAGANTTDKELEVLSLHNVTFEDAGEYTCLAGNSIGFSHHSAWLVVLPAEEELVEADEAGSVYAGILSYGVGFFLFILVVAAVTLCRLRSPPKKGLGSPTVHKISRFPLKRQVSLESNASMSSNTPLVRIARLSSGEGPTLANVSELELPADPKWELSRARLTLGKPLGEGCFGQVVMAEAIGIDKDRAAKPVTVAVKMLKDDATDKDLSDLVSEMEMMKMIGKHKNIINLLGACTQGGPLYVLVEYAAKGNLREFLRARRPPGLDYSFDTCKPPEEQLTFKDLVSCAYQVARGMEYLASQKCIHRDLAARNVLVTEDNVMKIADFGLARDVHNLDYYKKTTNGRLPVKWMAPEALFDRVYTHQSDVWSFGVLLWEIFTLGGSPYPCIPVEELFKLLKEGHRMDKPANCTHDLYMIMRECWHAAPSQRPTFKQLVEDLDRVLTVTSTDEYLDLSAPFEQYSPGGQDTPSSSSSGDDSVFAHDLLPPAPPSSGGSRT
T1 sequence (P00533 25-1210 G719C): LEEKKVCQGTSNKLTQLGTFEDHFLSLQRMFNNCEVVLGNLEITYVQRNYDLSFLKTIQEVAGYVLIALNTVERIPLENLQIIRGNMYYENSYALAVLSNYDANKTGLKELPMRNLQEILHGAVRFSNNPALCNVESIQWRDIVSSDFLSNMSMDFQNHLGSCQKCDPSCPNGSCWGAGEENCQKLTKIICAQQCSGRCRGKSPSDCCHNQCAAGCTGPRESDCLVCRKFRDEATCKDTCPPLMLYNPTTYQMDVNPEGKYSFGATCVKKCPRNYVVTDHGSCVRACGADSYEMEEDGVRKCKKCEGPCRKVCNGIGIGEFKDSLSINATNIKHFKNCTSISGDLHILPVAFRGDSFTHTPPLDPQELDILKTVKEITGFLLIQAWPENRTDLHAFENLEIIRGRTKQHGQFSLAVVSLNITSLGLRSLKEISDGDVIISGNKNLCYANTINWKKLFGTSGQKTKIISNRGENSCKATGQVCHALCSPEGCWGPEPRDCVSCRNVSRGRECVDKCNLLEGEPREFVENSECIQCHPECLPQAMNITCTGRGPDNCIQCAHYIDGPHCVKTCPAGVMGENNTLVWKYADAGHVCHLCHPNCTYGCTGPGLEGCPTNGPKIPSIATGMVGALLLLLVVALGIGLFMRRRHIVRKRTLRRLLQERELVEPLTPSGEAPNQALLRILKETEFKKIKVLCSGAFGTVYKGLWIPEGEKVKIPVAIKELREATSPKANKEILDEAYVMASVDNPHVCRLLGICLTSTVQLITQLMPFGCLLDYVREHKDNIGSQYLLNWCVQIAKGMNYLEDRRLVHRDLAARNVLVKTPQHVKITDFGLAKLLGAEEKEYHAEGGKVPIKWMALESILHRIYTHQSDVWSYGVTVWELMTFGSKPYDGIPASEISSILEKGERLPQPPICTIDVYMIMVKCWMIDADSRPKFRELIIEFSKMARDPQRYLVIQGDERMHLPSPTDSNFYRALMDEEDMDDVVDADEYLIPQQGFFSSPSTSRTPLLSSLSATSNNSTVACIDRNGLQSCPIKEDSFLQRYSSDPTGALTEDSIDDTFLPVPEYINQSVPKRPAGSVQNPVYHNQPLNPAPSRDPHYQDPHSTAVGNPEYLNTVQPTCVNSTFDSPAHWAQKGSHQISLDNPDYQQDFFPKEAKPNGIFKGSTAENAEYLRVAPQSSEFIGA
T3 sequence (Q9BUB5 whole entry): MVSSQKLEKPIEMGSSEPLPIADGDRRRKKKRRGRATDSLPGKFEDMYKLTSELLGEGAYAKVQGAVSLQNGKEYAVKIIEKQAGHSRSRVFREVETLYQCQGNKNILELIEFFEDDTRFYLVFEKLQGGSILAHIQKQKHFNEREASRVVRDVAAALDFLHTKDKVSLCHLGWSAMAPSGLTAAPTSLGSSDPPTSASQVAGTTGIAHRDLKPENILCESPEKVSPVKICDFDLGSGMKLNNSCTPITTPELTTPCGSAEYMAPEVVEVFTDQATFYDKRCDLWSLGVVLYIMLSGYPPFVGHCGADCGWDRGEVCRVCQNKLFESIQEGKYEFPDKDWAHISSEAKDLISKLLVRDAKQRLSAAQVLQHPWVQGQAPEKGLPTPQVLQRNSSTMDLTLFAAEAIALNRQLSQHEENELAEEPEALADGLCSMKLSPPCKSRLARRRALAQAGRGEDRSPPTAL

With `COc1cc(C(=O)N2CCC(N3CCN(C)CC3)CC2)ccc1Nc1ncc2c(n1)N1CCc3cccc(c31)C(=O)N2C` [Compound 24] the “KINOMEscan: EGFR(G719C)” value [1] was 66 and the “KINOMEscan: FGFR3(G697C)” value [2] was 80.
For `CCOc1cc(C(=O)N2CCC(N3CCN(C)CC3)CC2)ccc1Nc1ncc2c(n1)N(C1CCCC1)c1ccccc1C(=O)N2C` [Compound 26], the “KINOMEscan: MKNK1” value [3] was 96, the “KINOMEscan: EGFR(G719C)” value [1] was 100 and the “KINOMEscan: ABL1(Y253F)-phosphorylated” value [4] was 100. The “KINOMEscan: FGFR3(G697C)” value [2] was 100.
In the case of `COc1cc(C(=O)N2CCC(N3CCN(C)CC3)CC2)ccc1Nc1ncc2c(n1)N(C1CCCC1)c1ccccc1C(=O)N2C` [Compound 25, 11-cyclopentyl-2-((2-methoxy-4-(4-(4-methylpiperazin-1-yl)piperidine-1-carbonyl)phenyl)amino)-5-methyl-5H-benzo[e]pyrimido[5,4-b][1,4]diazepin-6(11H)-one], the “KINOMEscan: MKNK1” value [3] is reported as 100, the “KINOMEscan: EGFR(G719C)” value [1] is reported as 71 and the “KINOMEscan: ABL1(Y253F)-phosphorylated” value [4] is reported as 60. For the same compound, the “KINOMEscan: FGFR3(G697C)” value [2] was 100.
With `COc1cc(C(=O)N2CCC(N3CCN(C)CC3)CC2)ccc1Nc1ncc2c(n1)N(C)c1ccccc1C(=O)N2C` [15 (LRRK2-IN-1)] the “KINOMEscan: MKNK1” value [3] was 50, the “KINOMEscan: EGFR(G719C)” value [1] was 100 and the “KINOMEscan: ABL1(Y253F)-phosphorylated” value [4] was 89. For the same compound, the “KINOMEscan: FGFR3(G697C)” value [2] was 85.

Reference: article PMC3914206
